Key:
Type in all cases: in vivo
[1] = test system: ivy-leaved morning glory (Ipomoea hederacea); assay: Test G Pre-Emergence Protocol; settings: Ipomoea, pre-emergence, 312 h, evaluated after 13 days; for pest or weed control at 15.625 g/ha: 15.625 g ai/ha, read-out: Morning-glory, Ivy-leaved damage rating (100=total damage to plant; 0=no damage to plant); for pest or weed control at 62.5 g/ha: 62.5 g ai/ha, 100=total damage to plant, 0=no damage to plant, read-out: plant damage rating, Morningglory, Ivy-leaved; for pest or weed control at 250 g/ha: 250 g ai/ha, read-out: Morningglory, Ivy-leaved damage rating (100=total damage to plant; 0=no damage to plant)
Method in brief: (§1)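 Pots of seeds in standard soil were grown for one day in a glasshouse (24/16 °C day/night, 14 h light, 65% humidity), then sprayed with compound in acetone/water 50:50 with 0.5% Tween 20 at 15.625, 62.5 or 250 g/ha. Damage was scored after 13 days on a 0 (none) to 100 (total) scale.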

[2] = test system: giant foxtail (Setaria faberi); assay: Test G Pre-Emergence Protocol; settings: Setaria faberi, pre-emergence, 312 h, evaluated after 13 days; for pest or weed control at 15.625 g/ha: 15.625 g ai/ha; for pest or weed control at 15.625 g/ha / pest or weed control at 250 g/ha: read-out: Foxtail, Giant damage rating (100=total damage to plant; 0=no damage to plant); for pest or weed control at 62.5 g/ha: 62.5 g ai/ha, 100=total damage to plant, 0=no damage to plant, read-out: plant damage rating, Foxtail, Giant; for pest or weed control at 250 g/ha: 250 g ai/ha
Method in brief: as §1

[3] = test system: redroot pigweed (Amaranthus retroflexus); assay: Test G Pre-Emergence Protocol; settings: Amaranthus retroflexus, pre-emergence, 312 h, evaluated after 13 days; for pest or weed control at 15.625 g/ha: 15.625 g ai/ha; for pest or weed control at 15.625 g/ha / pest or weed control at 250 g/ha: read-out: Pigweed, Redroot damage rating (100=total damage to plant; 0=no damage to plant); for pest or weed control at 62.5 g/ha: 62.5 g ai/ha, 100=total damage to plant, 0=no damage to plant, read-out: plant damage rating, Pigweed, Redroot; for pest or weed control at 250 g/ha: 250 g ai/ha
Method in brief: as §1

[4] = test system: barnyardgrass (Echinochloa crus-galli); assay: Test G Pre-Emergence Protocol; settings: Echinochloa crus-galli, pre-emergence, 312 h, evaluated after 13 days; for pest or weed control at 15.625 g/ha: 15.625 g ai/ha, read-out: Barnyard grass damage rating (100=total damage to plant; 0=no damage to plant); for pest or weed control at 62.5 g/ha: 62.5 g ai/ha, 100=total damage to plant, 0=no damage to plant, read-out: plant damage rating, Barnyardgrass; for pest or weed control at 250 g/ha: 250 g ai/ha, read-out: Barnyardgrass damage rating (100=total damage to plant; 0=no damage to plant)
Method in brief: as §1

[5] = test system: velvetleaf (Abutilon theophrasti); assay: Test G Pre-Emergence Protocol; settings: Abutilon theophrasti, pre-emergence, 312 h, evaluated after 13 days; for pest or weed control at 15.625 g/ha: 15.625 g ai/ha; for pest or weed control at 15.625 g/ha / pest or weed control at 250 g/ha: read-out: Velvetleaf damage rating (100=total damage to plant; 0=no damage to plant); for pest or weed control at 62.5 g/ha: 62.5 g ai/ha, 100=total damage to plant, 0=no damage to plant, read-out: plant damage rating, Velvetleaf; for pest or weed control at 250 g/ha: 250 g ai/ha
Method in brief: as §1

corn (Zea mays) [6] = assay: Test G Pre-Emergence Protocol; settings: Zea mays, pre-emergence, 312 h, evaluated after 13 days; for plant injury at 15.625 g/ha: 15.625 g ai/ha; for plant injury at 15.625 g/ha / plant injury at 250 g/ha: read-out: Corn damage rating (100=total damage to plant; 0=no damage to plant); for plant injury at 62.5 g/ha: 62.5 g ai/ha, 100=total damage to plant, 0=no damage to plant, read-out: plant damage rating, Corn; for plant injury at 250 g/ha: 250 g ai/ha
Method in brief: as §1

[7] = test system: ivy-leaved morning glory (Ipomoea hederacea); assay: Test G Post-Emergence Protocol; settings: Ipomoea, post-emergence, 312 h; for pest or weed control at 15.625 g/ha: 15.625 g ai/ha, evaluated after 13 days (100=total damage to plant; 0=no damage to plant), read-out: Morningglory, Ivy-leaved damage rating; for pest or weed control at 62.5 g/ha: 62.5 g ai/ha, read-out: Morningglory, Ivy-leaved damage rating (100=total damage to plant; 0=no damage to plant); for pest or weed control at 62.5 g/ha / pest or weed control at 250 g/ha: evaluated after 13 days; for pest or weed control at 250 g/ha: 250 g ai/ha, read-out: damage to plant, Morningglory, Ivy-leaved (100=total damage to plant; 0=no damage to plant)
Method in brief: (§2)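 Pot-grown seedlings, 8 days old, raised in a glasshouse at 24/16 °C day/night with 14 h light and 65% humidity, were sprayed post-emergence with test compound in acetone/water (50:50) plus 0.5% Tween 20 at 15.625, 62.5 or 250 g/ha. Damage was scored visually 13 days later on a 0–100 scale (100 = total damage).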

[8] = test system: giant foxtail (Setaria faberi); assay: Test G Post-Emergence Protocol; settings: Setaria faberi, post-emergence, 312 h; for pest or weed control at 15.625 g/ha: 15.625 g ai/ha, evaluated after 13 days (100=total damage to plant; 0=no damage to plant), read-out: Foxtail, Giant damage rating; for pest or weed control at 62.5 g/ha: 62.5 g ai/ha, read-out: Foxtail, Giant damage rating (100=total damage to plant; 0=no damage to plant); for pest or weed control at 62.5 g/ha / pest or weed control at 250 g/ha: evaluated after 13 days; for pest or weed control at 250 g/ha: 250 g ai/ha, read-out: damage to plant, Foxtail, Giant (100=total damage to plant; 0=no damage to plant)
Method in brief: as §2

[9] = test system: redroot pigweed (Amaranthus retroflexus); assay: Test G Post-Emergence Protocol; settings: Amaranthus retroflexus, post-emergence, 312 h; for pest or weed control at 15.625 g/ha: 15.625 g ai/ha, evaluated after 13 days (100=total damage to plant; 0=no damage to plant), read-out: Pigweed, Redroot damage rating; for pest or weed control at 62.5 g/ha: 62.5 g ai/ha, read-out: Pigweed, Redroot damage rating (100=total damage to plant; 0=no damage to plant); for pest or weed control at 62.5 g/ha / pest or weed control at 250 g/ha: evaluated after 13 days; for pest or weed control at 250 g/ha: 250 g ai/ha, read-out: damage to plant, Pigweed, Redroot (100=total damage to plant; 0=no damage to plant)
Method in brief: as §2

[10] = test system: barnyardgrass (Echinochloa crus-galli); assay: Test G Post-Emergence Protocol; settings: Echinochloa crus-galli, post-emergence, 312 h; for pest or weed control at 15.625 g/ha: 15.625 g ai/ha, evaluated after 13 days (100=total damage to plant; 0=no damage to plant), read-out: Barnyardgrass damage rating; for pest or weed control at 62.5 g/ha: 62.5 g ai/ha, read-out: Barnyardgrass damage rating (100=total damage to plant; 0=no damage to plant); for pest or weed control at 62.5 g/ha / pest or weed control at 250 g/ha: evaluated after 13 days; for pest or weed control at 250 g/ha: 250 g ai/ha, read-out: damage to plant, Barnyardgrass (100=total damage to plant; 0=no damage to plant)
Method in brief: as §2

[11] = test system: velvetleaf (Abutilon theophrasti); assay: Test G Post-Emergence Protocol; settings: Abutilon theophrasti, post-emergence, 312 h; for pest or weed control at 15.625 g/ha: 15.625 g ai/ha, evaluated after 13 days (100=total damage to plant; 0=no damage to plant), read-out: Velvetleaf damage rating; for pest or weed control at 62.5 g/ha: 62.5 g ai/ha, read-out: Velvetleaf damage rating (100=total damage to plant; 0=no damage to plant); for pest or weed control at 62.5 g/ha / pest or weed control at 250 g/ha: evaluated after 13 days; for pest or weed control at 250 g/ha: 250 g ai/ha, read-out: damage to plant, Velvetleaf (100=total damage to plant; 0=no damage to plant)
Method in brief: as §2

corn (Zea mays) [12] = assay: Test G Post-Emergence Protocol; settings: Zea mays, post-emergence, 312 h; for plant injury at 15.625 g/ha: 15.625 g ai/ha, evaluated after 13 days (100=total damage to plant; 0=no damage to plant), read-out: Corn damage rating; for plant injury at 62.5 g/ha: 62.5 g ai/ha, read-out: Corn damage rating (100=total damage to plant; 0=no damage to plant); for plant injury at 62.5 g/ha / plant injury at 250 g/ha: evaluated after 13 days; for plant injury at 250 g/ha: 250 g ai/ha, read-out: damage to plant, Corn (100=total damage to plant; 0=no damage to plant)
Method in brief: as §2

SMILES	pest or weed control at 15.625 g/ha [1] [%]	pest or weed control at 62.5 g/ha [1] [%]	pest or weed control at 250 g/ha [1] [%]	pest or weed control at 15.625 g/ha [2] [%]	pest or weed control at 62.5 g/ha [2] [%]	pest or weed control at 250 g/ha [2] [%]	pest or weed control at 15.625 g/ha [3] [%]	pest or weed control at 62.5 g/ha [3] [%]	pest or weed control at 250 g/ha [3] [%]	pest or weed control at 15.625 g/ha [4] [%]	pest or weed control at 62.5 g/ha [4] [%]	pest or weed control at 250 g/ha [4] [%]	pest or weed control at 15.625 g/ha [5] [%]	pest or weed control at 62.5 g/ha [5] [%]	pest or weed control at 250 g/ha [5] [%]	plant injury at 15.625 g/ha (corn (Zea mays) [6]) [%]	plant injury at 62.5 g/ha (corn (Zea mays) [6]) [%]	plant injury at 250 g/ha (corn (Zea mays) [6]) [%]	pest or weed control at 15.625 g/ha [7] [%]	pest or weed control at 62.5 g/ha [7] [%]	further results
CN1C[C@@H](c2ccc(C(F)(F)F)cc2)[C@H](C(=O)Nc2cc(F)c(F)c(F)c2F)C1=O (racemic) [Compound 1625]	0	10	10	0	10	80	0	20	10	0	0	40	0	0	10	0	0	0	0	0	pest or weed control at 250 g/ha [7]: 20%; pest or weed control at 15.625 g/ha [8]: 0%; pest or weed control at 62.5 g/ha [8]: 50%; pest or weed control at 250 g/ha [8]: 80%; pest or weed control at 15.625 g/ha [9]: 0%; pest or weed control at 62.5 g/ha [9]: 30%; pest or weed control at 250 g/ha [9]: 50%; pest or weed control at 15.625 g/ha [10]: 0%; pest or weed control at 62.5 g/ha [10]: 30%; pest or weed control at 250 g/ha [10]: 40%; pest or weed control at 15.625 g/ha [11]: 0%; pest or weed control at 62.5 g/ha [11]: 10%; pest or weed control at 250 g/ha [11]: 40%; plant injury at 15.625 g/ha (corn (Zea mays) [12]): 0%; plant injury at 62.5 g/ha (corn (Zea mays) [12]): 0%; plant injury at 250 g/ha (corn (Zea mays) [12]): 10%
CN1C[C@H](c2ccc(C(F)(F)F)cc2)[C@@H](C(=O)Nc2ccc(C(F)(F)F)cc2F)C1=O (racemic) [Compound 1426]	0	0	0	0	50	70	0	0	0	0	10	20	0	0	0	0	0	0	0	0	pest or weed control at 250 g/ha [7]: 0%; pest or weed control at 15.625 g/ha [8]: 0%; pest or weed control at 62.5 g/ha [8]: 0%; pest or weed control at 250 g/ha [8]: 40%; pest or weed control at 15.625 g/ha [9]: 0%; pest or weed control at 62.5 g/ha [9]: 10%; pest or weed control at 250 g/ha [9]: 10%; pest or weed control at 15.625 g/ha [10]: 0%; pest or weed control at 62.5 g/ha [10]: 0%; pest or weed control at 250 g/ha [10]: 20%; pest or weed control at 15.625 g/ha [11]: 0%; pest or weed control at 62.5 g/ha [11]: 0%; pest or weed control at 250 g/ha [11]: 0%; plant injury at 15.625 g/ha (corn (Zea mays) [12]): 10%; plant injury at 62.5 g/ha (corn (Zea mays) [12]): 0%; plant injury at 250 g/ha (corn (Zea mays) [12]): 10%

From US12077503B2, “Substituted cyclic amides and their use as herbicides” (FMC CORPORATION, priority 2015, dated 2024)
